Data from US20050277627A1, “Colchinol derivatives as vascular damaging agents” (priority 2000, published 2005).

Legend:
[1] = system: mammalian tubulin; conditions: O. Boye et al Med. Chem. Res., 1991, 1, 142-150; read-out: IC50 in a tubulin polymerisation assay; cited from earlier work
[2] = system: tumour vasculature in CaNT tumour-bearing mice; assay: Activity against tumour vasculature measured by fluorescent dye (Hoechst 33342); assay type: in vivo; conditions: 50 mg/kg intraperitoneally, dye injected 24 hours after drug treatment
Protocol: (b) Activity Against Tumour Vasculature Measured by Fluorescent Dye
Tumour functional vascular volume in CaNT tumour-bearing mice was measured using the fluorescent dye Hoechst 33342 according to the method of Smith et al (Brit. Jnl. Cancer 1988, 57, 247-253). Five animals were used in control and treated groups. The fluorescent dye was dissolved in saline at 6.25 mg/ml and injected intravenously at 10 mg/kg 24 hours after intraperitoneal drug treatment. One minute later, animals were killed and tumours excised and frozen; 10 μm sections were cut at 3 different levels and observed under UV illumination using an Olympus microscope equipped with epifluorescence. Blood vessels were identified by their fluorescent outlines and vascular volume was quantified using a point scoring system based on that described by Chalkley, (Jnl. Natl. Cancer Inst., 1943, 4, 47-53). All estimates were based on counting a minimum of 100 fields from sections cut at the 3 different levels.

[3] = system: Hras5 tumours (NIH 3T3 fibroblasts transfected with Harvey ras, clone 5) in nude mice; assay: Hras5 necrosis model; assay type: in vivo; conditions: 25 mg/kg; single dose, culled 24 hours after dosing; male nude mice
Protocol: NIH 3T3 fibroblasts transfected with Harvey ras, clone 5, (Hras5 cells) were kept in continual passage in Dulbecco's modifed Eagles medium (DMEM) containing 10% foetal bovine serum (FBS) and 1% glutamine, at 37° C. in a humidified incubator gassed with 7.5% carbon dioxide and 92.5% […]. Cells were implanted subcutaneously into the left flank of male nude mice (8-10 weeks of age) at an inoculum of 2×10^5 cells/mouse. Tumours were measured using calipers and randomised into groups of 2-4 mice between days 9-14 after implant. Mice were dosed with compounds, either intravenously or intraperitoneally, once on day of randomisation and culled 24 hours after dosing. Compounds were dissolved in 20% hydroxypropyl beta cyclodextrin in physiological saline at pH 7 and dosed in a volume of 0.1 ml per 10 g body weight. Tumours were excised, weighed and placed in buffered formalin. Area of necrosis in individual tumours was assessed from a haematoxylin/eosin stained-slide by a pathologist and scored from 0, meaning no significant change, to 10, meaning 91-100% necrosis. The activity of examples 5 and 7 (described hereinafter) against tumour vasculature was measured by the fluorescent dye method described hereinabove. Example 1 scored 6.6 at 25 mg/kg.

Row | Compound | IC50 [1] | decrease in perfused vascular volume relative to control [2] | necrosis score (0 = no significant change, 10 = 91-100% necrosis) [3]
1 | COc1cc2c(c(OC)c1OC)-c1ccc(N)cc1C(NC(C)=O)CC2 (stereo not drawn) [N-[3-amino-9,10,11-trimethoxy-6,7-dihydro-5H-dibenzo[a,c]cyclohepten-5-yl]acetamide] | 58 µM | 88% | –
2 | COc1cc2c(c(OC)c1OC)-c1ccc(OC(=O)CCCC(=O)N3CCN(C(C)=O)CC3)cc1[C@@H](NC(C)=O)CC2 [Example 1, (5S)-5-Acetylamino-9,10,11-trimethoxy-6,7-dihydro-5H-dibenzo[a,c]cyclohepten-3-yl 5-(4-acetylpiperazin-1-yl)-5-oxopentanoate] | – | – | 6.6
